Legend:
[1] = tested on: wild type Marchantia plants; assay: Lethal concentration determination: Marchantia spores plated on Johnson's medium agar supplemented with herbicide, 14-day old sporelings; format: in vivo, Marchantia polymorpha
Method: A lethal concentration of the herbicide hit was determined in the condition of the mutagenesis concentration. 20000 Marchantia spores were plated in 90 mm Petri dishes containing 25 mL of Johnson's medium containing 1.4% agar and supplemented with a range of herbicide hit concentrations ranging from 1 to 50000 nM. The lethal concentration was defined as the minimum concentration of herbicide hit sufficient to kill 100% of the wild type Marchantia plants (FIG. 11).
If no lethal concentration was observed, the highest concentration would be used in place of the lethal concentration provided that it caused the plants to show a phenotype distinct from the phenotype of untreated plants. For example, this alternative phenotype may be a strong reduction in growth (FIG. 12) or a marked change in the shape of the plants, or a change in plant pigmentation.
Marchantia polymorpha spores were irradiated with ultraviolet B irradiation and seven independent mutant lines resistant to the herbicide chlorsulfuron were identified. Chlorsulfuron resistance was determined by a Marchantia polymorpha plant that was alive two weeks following exposure to a lethal dose of Chlorsulfuron (0.1 ppm dose, i.e. a dose sufficient to kill 100% of wild-type plants).

Marchantia polymorpha = conditions: stated as known, like liverworts in general; cited from earlier work
[2] = 1000 μM herbicide, 14-day old sporelings in Petri dishes, three replicates

| Compound | survival of sporelings [1, 2] | sensitivity of Marchantia polymorpha to the herbicide (Marchantia polymorpha) | growth of sporelings [1, 2] | lethal dose (dose sufficient to kill 100% of wild-type plants) ([1]; wild-type Marchantia polymorpha, two weeks following exposure) [ppm] |
| --- | --- | --- | --- | --- |
| CNc1cnn(-c2cccc(C(F)(F)F)c2)c(=O)c1Cl [Norflurazon] | have all died | – | – | – |
| CP(=O)(O)CCC(N)C(=O)O (stereo not drawn) [glufosinate] | – | insensitive | – | – |
| O=C(O)CNCP(=O)(O)O [glyphosate] | – | insensitive | – | – |
| COc1nc(C)nc(NC(=O)NS(=O)(=O)c2ccccc2Cl)n1 [Chlorsulfuron] | have not all died | – | marked reduction in growth | 0.1 |
